Measurements as given in the supplement of paper PMC10307832.

Legend:
Assay in all cases: relative viability (nuclei count vs DMSO), 5 days (fraction); higher = more cells survive
[1] = system: EMC-BAC-2
Procedure, shortened: (§1)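 For relative viability, nuclei counts in treated wells were divided by those in vehicle wells. Lung cancer cell lines had been pin-tool dosed in 1536-well plates the day after seeding and cultured for 5 days, then fixed and stained in one step (final 0.05% Triton X-100, 1% formaldehyde, 1 ug/ml Hoechst) and imaged at 4×. Doses were one drug alone or a fixed anchor-drug dose plus five library-drug doses (not always all listed) in √10 steps, and values are duplicate-plate medians.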

[2] = system: EPLC-272H
Procedure, shortened: as §1

[3] = system: HCC-44
Procedure, shortened: as §1

[4] = system: LCLC-103H
Procedure, shortened: as §1

[5] = system: NCI-H23
Procedure, shortened: as §1

[6] = system: NCI-H322M
Procedure, shortened: as §1

[7] = system: NCI-H2085
Procedure, shortened: as §1

[8] = system: SK-MES-1
Procedure, shortened: as §1

[9] = system: NCI-H1993
Procedure, shortened: as §1

[10] = system: NCI-H2405
Procedure, shortened: as §1

[11] = system: H3255
Procedure, shortened: as §1

[12] = system: NCI-H650
Procedure, shortened: as §1

[13] = system: LCLC-97TM1
Procedure, shortened: as §1

[14] = system: ChaGo-K-1
Procedure, shortened: as §1

[15] = system: HCC-827
Procedure, shortened: as §1

[16] = system: NCI-H1395
Procedure, shortened: as §1

[17] = system: NCI-H1793
Procedure, shortened: as §1

[18] = system: UMC-11
Procedure, shortened: as §1

[19] = system: NCI-H520
Procedure, shortened: as §1

[20] = system: NCI-H1944
Procedure, shortened: as §1

[21] = system: NCI-H2087
Procedure, shortened: as §1

[22] = system: NCI-H1355
Procedure, shortened: as §1

[23] = system: NCI-H1651
Procedure, shortened: as §1

CC(C)Oc1cc(Nc2nc(N[C@@H](C)c3ccc(F)cn3)ncc2Cl)n[nH]1 [AZ23] + O=C(CCCCCCC(=O)Nc1ccccc1)NO [Vorinostat] (partner 1 µM)
relative viability ([1]; first compound 0.01 µM): 0.333
relative viability ([1]; first compound 0.03162 µM): 0.511
relative viability ([1]; first compound 0.3162 µM): 0.505
relative viability ([2]; first compound 0.03162 µM): 0.543
relative viability ([2]; first compound 0.3162 µM): 0.423
relative viability ([3]; first compound 0.01 µM): 1.14
relative viability ([3]; first compound 0.03162 µM): 1.16
relative viability ([3]; first compound 0.3162 µM): 1.09
relative viability ([4]; first compound 0.01 µM): 0.76
relative viability ([4]; first compound 0.03162 µM): 0.85
relative viability ([4]; first compound 0.3162 µM): 0.769
relative viability ([5]; first compound 0.03162 µM): 0.62
relative viability ([5]; first compound 0.3162 µM): 0.719
relative viability ([6]; first compound 0.01 µM): 0.674
relative viability ([6]; first compound 0.03162 µM): 0.881
relative viability ([6]; first compound 0.3162 µM): 0.93
relative viability ([7]; first compound 0.01 µM): 0.662
relative viability ([7]; first compound 0.03162 µM): 0.88
relative viability ([7]; first compound 0.3162 µM): 0.755
relative viability ([8]; first compound 0.03162 µM): 1.22
relative viability ([8]; first compound 0.3162 µM): 1.2
relative viability ([9]; first compound 0.01 µM): 0.634
relative viability ([9]; first compound 0.03162 µM): 0.654
relative viability ([9]; first compound 0.3162 µM): 0.814
relative viability ([10]; first compound 0.01 µM): 0.922
relative viability ([10]; first compound 0.03162 µM): 1.13
relative viability ([10]; first compound 0.3162 µM): 1.01
relative viability ([11]; first compound 0.01 µM): 0.737
relative viability ([11]; first compound 0.03162 µM): 0.791
relative viability ([11]; first compound 0.3162 µM): 0.867
relative viability ([12]; first compound 0.01 µM): 0.411
relative viability ([12]; first compound 0.03162 µM): 0.583
relative viability ([12]; first compound 0.3162 µM): 0.452
relative viability ([13]; first compound 0.01 µM): 0.582
relative viability ([13]; first compound 0.03162 µM): 0.885
relative viability ([13]; first compound 0.3162 µM): 0.396
relative viability ([14]; first compound 0.01 µM): 0.936
relative viability ([14]; first compound 0.03162 µM): 0.798
relative viability ([14]; first compound 0.3162 µM): 0.82
relative viability ([15]; first compound 0.01 µM): 0.964
relative viability ([15]; first compound 0.03162 µM): 0.866
relative viability ([15]; first compound 0.3162 µM): 0.9
relative viability ([16]; first compound 0.03162 µM): 0.685
relative viability ([16]; first compound 0.3162 µM): 0.799
relative viability ([17]; first compound 0.01 µM): 0.679
relative viability ([17]; first compound 0.03162 µM): 0.811
relative viability ([17]; first compound 0.3162 µM): 0.892
relative viability ([18]; first compound 0.01 µM): 0.281
relative viability ([18]; first compound 0.03162 µM): 0.384
relative viability ([18]; first compound 0.3162 µM): 0.357
relative viability ([19]; first compound 0.01 µM): 0.794
relative viability ([19]; first compound 0.03162 µM): 0.754
relative viability ([19]; first compound 0.3162 µM): 0.609
relative viability ([20]; first compound 0.01 µM): 0.409
relative viability ([20]; first compound 0.03162 µM): 0.625
relative viability ([20]; first compound 0.3162 µM): 0.631
relative viability ([21]; first compound 0.01 µM): 0.969
relative viability ([21]; first compound 0.03162 µM): 0.995
relative viability ([21]; first compound 0.3162 µM): 0.668
relative viability ([22]; first compound 0.01 µM): 0.672
relative viability ([22]; first compound 0.03162 µM): 0.715
relative viability ([22]; first compound 0.3162 µM): 0.633
relative viability ([23]; first compound 0.01 µM): 0.524
relative viability ([23]; first compound 0.03162 µM): 0.545
relative viability ([23]; first compound 0.3162 µM): 0.584
